These results are taken from patent US6737407B1, “Treatment of obesity” (Metabolic Pharmaceuticals, Ltd., priority 1997, dated 2004).

Test [1] deals with adipose tissues of the C57BL/6J (ob/ob) mice. As to the kind of experiment: Ex vivo lipogenesis in adipose tissues of treated ob/ob mice ([C14]-glucose incorporated into lipid). More on the design: species or system mouse. The source says: FIGS. 5A & 5B depict the ex vivo effect on lipogenesis in adipose tissues of the C57BL/6J (ob/ob) male mice (5A) and female mice (5B) after 18-day treatment with hGH 177-191. […] The differences between the hGH 177-191 treated and saline control groups were statistically significant.
(§1) The procedure for the isolation and measurement of intact epididymal fat pads was established in previous studies of epididymal growth of GH-deficient (lit/lit) mice. In the present study, white adipose tissues, either whole epididymal or parametrical fat pads, were excised with the identical techniques as previously described^22 from the mice immediately after sacrifice. The tissues were washed in cold physiological saline, blotted and weighed. For ex vivo lipogenic assays, the portions of adipose tissues without blood vessels were used.
The rate of the incorporation of exogenous [C^14]-glucose into total lipid in adipose tissue was measured as the index of anti-lipogenic activity of hGH 177-191.
Adipose tissues were sliced into segments of approximately 200 mg each and then placed in Krebs-Ringer bicarbonate (KRB) buffer (pH 7.4) containing 2% defatted BSA, and glucose (0.1 mg/ml) and gassed with 95% O2-5% CO2 at 37° C. […] The [C^14] radioactivity was measured with a liquid scintillation counter. The rates of total lipid synthesis were expressed as μmol [C^14]-glucose incorporated into lipid/g tissue/hr.

Test [2] has as its system isolated adipose tissues of C57BL/6J (ob/ob) mice. As to the kind of experiment: Oxidation of free fatty acid in isolated adipose tissues. Particulars: adipose tissues isolated from obese animals, FIG. 7. In kind it is cell-based, mouse. The procedure: FIG. 7 illustrates the in vitro effect of hGH 177-191 on fatty acid oxidation in isolated adipose tissues of C57BL/6J (ob/ob) mice with the determination of the rate of [C^14]O2 production from [C^14]-palmitic acid. The rate of [C^14]-palmitic acid oxidation was expressed as μmol/g tissue/hr.
The effect of hGH 177-191 or analogues on the free fatty acid (FFA) oxidation in the adipose tissues is evaluated by the measure of converted [C^14]O2 from C^14-palmitic acid. The [C^14]O2 a final product of FFA oxidation, was trapped by hyamine hydroxide and measured by liquid scintillation counter. The rate of FFA oxidation was then determined by [C^14] radioactivity.
Adipose tissues removed from laboratory animals were sliced into segments of approximately 200 mg each. The tissues in 25 ml vials containing 2 ml of Krebs-Ringer phosphate (KRP) buffer, and 2% defatted bovine serum albumin (BSA) were pre-incubated at 37° C. for 30 minutes under an atmosphere of carbogen (95%O2/5%CO2) Then the tissues were transferred to Konte flasks with fresh incubation medium with 0.15 mM sodium [C^14]-palmitate (final [C^14]-specific activity, 0.20 μCi/μmol) and hGH 177-191 peptide or analogues (1-1000 nM). […] The [C^14] radioactivity was measured with a liquid scintillation counter. The rate of [C^14]-palmitic acid oxidation to [C^14]O2 was calculated and expressed as μmol/g tissue/hr.

The next test deals with C57BL/6J (ob/ob) mice. As to the kind of experiment: Chronic 18-day treatment of obese mice with hGH 177-191: body weight gain, food consumption, adipose tissue weight. Particulars: for Initial body wt.: treated group, before 18-day daily i.p. 200 μg/kg. The format is in vivo, mouse. The procedure: FIGS. 1A & 1B show the effect of hGH 177-191 peptide on cumulative body weight gains in male (1A) and female (1B) C57BL/6J (ob/ob) mice during the 18-day treatment period. Animals were given a daily intraperitoneal injection of 0.1 ml of either saline or hGH 177-191 (200 μg/kg body weight). Each points represents the mean±SEM of 6 animals.
FIGS. 2A & 2B show the average daily food consumption (g/mouse/day) of C57BL/6J (ob/ob) mice during an 18day treatment period with hGH 177-191. The treatment for the four groups of animals was as described in FIGS. 1A & 1B. Each point represents the mean±SEM of 6 animals.
The animals of the same age and same sex were randomly divided into two groups, housed 6 per cage and maintained on a normal 12-hr light/dark cycle at a constant room temperature of 25° C. in the animal house of the Department of Biochemistry and—Molecular Biology, Monash University, Clayton, Australia. Animals were fed ad libitum on pre-determined quantity of animal pellets (Clark King, Melboume, Australia) and allowed free access to water at all times. The animals were given a daily intraperitoneal (i.p) injection of 0.1 ml of either the synthetic peptide (200-500 μg/kg body weight) or equivalent volume of physiological saline (0.9% sodium chloride) for appropriate number of days. The i.p. injection was administered with a 30G×½″ (0.31×13 mm) needle on a 1-ml disposable tuberculin syringes, and the site of injection was the lower left quadrant of the abdomen of the animals. To study the effects of controlled-delivery of hGH 177-191 and analogues, slow-release peptide-pellets in a diameter of 3 mm were implanted intradermally in the abdominal region of Zucker rats under anaesthesia. The body weight and food intake were monitored for the periods of time as indicated.
Cumulative weight gain and food consumption were determined at 3-day intervals by the measurements of body weight and uneaten food remaining in the cages. The animals were placed in a covered chamber to minimise movement during the weighing procedure. The food consumption data were obtained by subtracting the amount of uneaten food remaining in the cages from the original provision.
as §1

[3] abbreviates: female ob/ob mice, 18-day daily i.p. 200 μg/kg.
Setting [4] is: male ob/ob mice, 18-day daily i.p. 200 μg/kg.

Where no end group is shown, it is not given here.

For “LRIVQCRSVEGSCGF (cysteine pairing not given here) [Ref No. 9401]”, the “tissue lipogenic activity ([C14]-glucose incorporated into lipid)” value in test [1] (female ob/ob mice after 18-day treatment) was 2.99±0.21 pmol/mg tissue/min. Also, the “tissue lipogenic activity ([C14]-glucose incorporated into lipid)” value in test [1] (male ob/ob mice after 18-day treatment) came out at 2.33±0.21 pmol/mg tissue/min. Moreover, the “oxidation of fatty acids (in words)” value in test [2] is given as “enhanced”. Also, the “average daily body weight gain lower than control” value in the test with C57BL/6J (ob/ob) mice (both male and female ob/ob mice) is given as “approximately 27%”. For the same sequence, in the test on C57BL/6J (ob/ob) mice (setting [3]), the “Adipose tissue (intact parametrical fat pads)” value came to 3.26 g, the Body wt. gain is given as 4.0 g, the Final body wt. turned out to be 52.2 g and the “daily body weight gain” value turned out to be 0.22 ± 0.04 g/day. The “reduction of adipose tissue weight versus control” value in the test with C57BL/6J (ob/ob) mice (female ob/ob mice, parametrical fat pads) is no more than 12%. Also, in the test with C57BL/6J (ob/ob) mice (female ob/ob mice), the Initial body wt. was found to be 48.2 g. In addition, the “cumulative body weight gain versus control (in words)” value in the test with C57BL/6J (ob/ob) mice (male and female ob/ob mice, 18-day daily i.p. 200 μg/kg) is “clear reduction”. In addition, the “average daily food consumption versus control (in words)” value in the test with C57BL/6J (ob/ob) mice (male and female ob/ob mice, 18-day treatment) is “no significant difference”. Also, in the test on C57BL/6J (ob/ob) mice (setting [4]), the “Adipose tissue (intact epididymal fat pads)” value is reported as 2.52 ± 0.25 g, the Body wt. gain was found to be 2.9 ± 0.6 g, the Final body wt. was determined as 51.5 ± 2.3 g and the “daily body weight gain” value worked out at 0.16 ± 0.04 g/day. The “reduction of adipose tissue weight versus control” value in the test on C57BL/6J (ob/ob) mice (male ob/ob mice, epididymal fat pads) was “up to 20%”. The Initial body wt. in the test on C57BL/6J (ob/ob) mice (male ob/ob mice) is 48.6 ± 2.0 g.
